Assay results published in patent US20260217776A1, “COMPOUND WITH ANTITUMOR ACTIVITY, COR[…] AND COR[…]” (priority 2023, published 2026).
Where two headings read alike, the source gives them in different places. Bridge positions count the residues as written; N and C are the ends. Peptide text beside a SMILES is read from it.

Assays:
[1] = test system: KB31 human epidermoid carcinoma cell line; details: for cell viability: KB31 line, peptide 150 μM, untreated 100%
Experimental: (§1) The cytotoxic activity assays were performed using a […] human epidermoid carcinoma cell line (American Type Culture Collection) and, as control, non-tumor cell lines of normal dermal fibroblasts (NDFa) and immortalized human keratinocytes (HACAT).
(§2) The used cells were placed in culture dishes (Corning®) and treated with the peptide (at a concentration of 150 μM) for 1 day and 6 days. In parallel, the same lines were prepared, without being treated with the peptide, as a negative control.
(§3) The analyzes were performed with a resazurin-based cytotoxicity assay (Sigma Aldrich) and a trypan blue exclusion assay.

in vitro = test: in vitro
Experimental: as §1, §2, §3

[2] = test system: KB31 human epidermoid carcinoma cell line; test: apoptotic activity assay (BD cell viability kit); format: cell-based; details: peptide 150 μM
Experimental: (§4) The same cell lines were used to verify the apoptotic activity of the peptide, providing the same treatment and the same negative controls. The percentage of apoptotic cells was determined using a BD™ cell viability kit (BD Biosciences), following the manufacturer's instructions. The results are expressed as average values in percentages taking into account the standard error of the mean (SEM).

[3] = test system: immortalized human keratinocytes (HACAT); test: apoptotic activity assay (BD cell viability kit); format: cell-based; details: HACAT line, peptide 150 μM
Experimental: as §4

[4] = test system: normal dermal fibroblasts (NDFa); test: apoptotic activity assay (BD cell viability kit); format: cell-based; details: NDFa line, peptide 150 μM
Experimental: as §4

[5] = human, immortalized keratinocytes (HACAT)
[6] = normal dermal fibroblasts (NDFa)

With CC(C)C[C@@H]1NC(=O)[C@H](CC(=O)O)NC(=O)[C@H](CC(N)=O)NC(=O)[C@H](CCCCN)NC(=O)[C@H](CCCNC(=N)N)NC(=O)CNC(=O)[C@H](CCC(=O)O)NC(=O)[C@H](Cc2c[nH]cn2)NC(=O)CNC(=O)[C@H](CCCNC(=N)N)NC(=O)[C@H](CCC(=O)O)NC(=O)[C@H](CO)NC(=O)[C@H](CC(C)C)NC(=O)[C@H]([C@@H](C)O)NC(=O)[C@H](CC(C)C)NC(=O)[C@H](CC(C)C)NC(=O)[C@@H]2CCCN2C(=O)[C@@H](NC(=O)[C@@H](N)CO)CSSC[C@@H](C(=O)N[C@@H](CCCNC(=N)N)C(=O)O)NC(=O)[C@H](CCC(=O)O)NC(=O)[C@H](C(C)C)NC(=O)[C@H](CCCCN)NC(=O)[C@H](CCCCN)NC1=O [peptide] (H-SCPLLTLSERGHEGRKNDLKKVECR-OH; disulfide 2-24; N-terminus assumed) the cell viability ([1]; 1 day) was 77%, the cell viability ([1]; 6 days) was “approximately 45%” and the “selectivity toward tumor cells” value ([1]; KB31 tumor cells versus non-tumor NDFa and HACAT, cytotoxic and apoptotic assays) was “good selectivity toward tumor cells”. The viability at 1 day, 150 μM (in vitro; [5]) was about 85%, the viability at 6 days, 150 μM (in vitro; [5]) was about 85% and the viability at 1 day, 150 μM (in vitro; [6]) was about 80%. The viability at 6 days, 150 μM (in vitro; [6]) was about 80%, the “apoptosis (percentage of apoptotic cells)” value ([2]; 1 day) was “less than 5%” and the “apoptosis (percentage of apoptotic cells)” value ([2]; 6 days, negative control just over 10%) was “more than 50%”. The “apoptosis (percentage of apoptotic cells)” value ([3]; 1 day) was “less than 5%”, the “apoptosis (percentage of apoptotic cells)” value ([3]; 6 days) was “less than 5%” and the “apoptosis (percentage of apoptotic cells)” value ([4]; 1 day) was “less than 5%”. For the same compound, the “apoptosis (percentage of apoptotic cells)” value ([4]; 6 days) was “less than 5%”.
